This is an account of results in patent US12466821B2 (Novartis AG, priority 2018, dated 2025).

The target in assay [1] is human CMV DNA polymerase UL54 (Human cytomegalovirus (strain AD169) (HHV-5) (Human herpesvirus 5), UniProt P08546). Nature of the assay: CMV polymerase biochemical assay (molecular beacon-based). On the procedure: (§1) Both human CMV DNA polymerase UL54 and human HSV DNA polymerase UL30 were produced as N-terminal MBP fusion of the full length, wild type recombinant proteins in order to enhance soluble expression in insect cell expression system. The proteins were expressed in sf9 insect cells via baculovirus transduction and cells were harvested after 48 hours. The soluble proteins were purified using the standard Ni-IMAC purification strategy via the N-terminal hexa-Histidine tag, followed by heparin affinity chromatography. Both of the final MBP fusion proteins were more than 90% pure and the yield of UL54 was up to 1.8 mg per liter culture while UL30 was up to 15 mg per liter culture. All purification steps were performed on ice, with buffers chilled on ice and FPLC fraction collectors set at 6° C. […] UL30 protein was stored in buffer containing 20 mM HEPES, pH7.0, 420 mM NaCl, 20% glycerol, 6 mM Imidazole, and 0.8 mM DTT at−80° C.
(§2) DNA polymerase activity was measured using a molecular beacon-based assay, as described in Ma et. al.
(§3) 100 pM CMV polymerase or 625 pM HSV polymerase was added to a buffer containing 20 mM Tris, pH=7.5, 100 mM NaCl, 10 mM MgCl2, 0.01% Tween-20, 0.5 mM EDTA, 10% Sucrose and 1 mM DTT. The inhibitor was pre-incubated with the polymerase for 30 minutes at room temperature. Reactions were initiated by the addition of a mixture containing 1.25 uM dATP, 1.25 uM dCTP, 1.25 uM dTTP, 1.25 uM dGTP, 200 nM Primer B (5′-GAC GGG AAG-3′5′-GAC GGG AAG-3′) and 100 nM molecular beacon (5′-5,6-FAM-CCTCTCCGTGTCTTGTACTTCCCGTCAGAGAGG-BHQ1-3′). For human CMV polymerase the reactions were incubated for 60 minutes at room temperature. For HSV polymerase the reactions were incubated for 20 minutes at room temperature. The reactions were then read on a Perkin-Elmer EnVision 2101 reader (fluorescence) using an excitation of 480 nm and emission of 535 nm. 1050s were determined using an internal Novartis software (Helios).
as §3, with “nm.” for “nm. 1050s were determined using an internal Novartis software (Helios).”

For assay [2], the system named is Luciferase-encoding HCMV, AD169 strain. Nature of the assay: CMV Luciferase assay (cellular herpesvirus replication). The class given is cell-based. The note with it: Human betaherpesvirus 5, AD169, read-out: CMV-Luc Cellular EC50. The method, boiled down: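 Neonatal human dermal fibroblasts were pretreated 1 h with compound (final 0.0159–50 μM or 0.00318–10 μM, 0.5% DMSO), then infected at MOI 1 with AD169 carrying pp28-promoter luciferase. After 72 h at 37 °C, Renilla-Glo luminescence normalized to no-virus and virus-only controls; EC50 by 4-parameter logistic model.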

Assay [3] concerns the target human HSV DNA polymerase UL30 (Human herpesvirus 1 (strain 17) (HHV-1) (Human herpes simplex virus 1), UniProt P04293). The assay is described as follows: HSV polymerase biochemical assay (molecular beacon-based). On the procedure: as §1, §2, §3
as §3, with “nm.” for “nm. 1050s were determined using an internal Novartis software (Helios).”

Structures are written as SMILES.

The term IC50 denotes the point on the concentration scale where inhibition reaches its midpoint. Read a high IC50 as lower potency. As a reminder, the EC50 is the concentration that produces a half-maximal response. Take `N#Cc1ccc(CNC(=O)c2ccc3n(c2=O)CCN(CC2(S(=O)(=O)C4(CF)CC4)CC2)C3=O)cc1` [Example 13]: the 50% inhibitory concentration (IC50) in assay [1] was 0.4 nM; in assay [3], 28.3 nM. Also, the EC50 in assay [2] is 19.3 nM.
Regarding `N#Cc1ccc(CNC(=O)c2ccc3n(c2=O)CCN(CC2(S(=O)(=O)C4(CF)CC4)CC2)C3=O)cc1F` [Example 14], the half-inhibitory concentration (IC50) stood at 0.3 nM in assay [1] and 27.9 nM in assay [3]. In addition, in assay [2], the half-maximal effective concentration (EC50) was 10 nM.
In the case of `COCC1(S(=O)(=O)C2(CN3CCn4c(ccc(C(=O)NCc5ccc(C#N)cc5)c4=O)C3=O)CC2)CC1` [Example 15], the IC50 was 0.7 nM in assay [1] and 26 nM in assay [3]. In addition, in assay [2], the concentration for a half-maximal effect (EC50) came to 30.2 nM.
On to `N#Cc1ccc(CNC(=O)c2ccc3n(c2=O)CCN(CC2(S(=O)(=O)C4CNC4)CC2)C3=O)cc1F` [Example 16, 2-((1-(azetidin-3-ylsulfonyl)cyclopropyl)methyl)-N-(4-cyano-3-fluorobenzyl)-1,6-dioxo-2,3,4,6-tetrahydro-1H-pyrido[1,2-a]pyrazine-7-carboxamide], for which the IC50 in assay [1] was found to be 6.1 nM; in assay [3], 285 nM. Further, the concentration giving a half-maximal response (EC50) in assay [2] turned out to be 3420 nM.
Consider `CN1CC(S(=O)(=O)C2(CN3CCn4c(ccc(C(=O)NCc5ccc(C#N)c(F)c5)c4=O)C3=O)CC2)C1` [Example 17, N-(4-cyano-3-fluorobenzyl)-2-((1-((1-methylazetidin-3-yl)sulfonyl)cyclopropyl)methyl)-1,6-dioxo-2,3,4,6-tetrahydro-1H-pyrido[1,2-a]pyrazine-7-carboxamide], for which the IC50 in assay [1] stood at 14.7 nM; in assay [3], 380 nM. In addition, in assay [2], the concentration giving a half-maximal response (EC50) stood at 905 nM.
Take `N#Cc1ccc(CNC(=O)c2ccc3n(c2=O)CCN(CC2(S(=O)(=O)C4CNC4)CC2)C3=O)cc1` [Example 18]: the concentration for half-maximal inhibition (IC50) in assay [1] was determined as 4.2 nM; in assay [3] it was 161 nM. The 50% effective concentration (EC50) in assay [2] was 3000 nM.
Regarding `O=C(NCc1ccc(Cl)cc1)c1ccc2n(c1=O)CCN(CC1(S(=O)(=O)C3CNC3)CC1)C2=O` [Example 19], the figures for the 50% inhibitory concentration (IC50) in assay [1] and in assay [3] were 3.9 nM and 149 nM, respectively. Moreover, the concentration for a half-maximal effect (EC50) in assay [2] turned out to be 538 nM.
The matching figures for `CN1CC(S(=O)(=O)C2(CN3CCn4c(ccc(C(=O)NCc5ccc(C#N)cc5)c4=O)C3=O)CC2)C1` [Example 20]: 13.2 nM, 319 nM and 1500 nM.
`N#Cc1ccc(CNC(=O)c2ccc3n(c2=O)CCN(CC2(S(=O)(=O)C4CCCC4)CC2)C3=O)cc1F` [Example 21]: the values for the IC50 in assay [1] and in assay [3] were 0.8 nM and 35.4 nM, respectively. Further, the concentration giving a half-maximal response (EC50) in assay [2] worked out at 58 nM.
On the same counts, the results for `N#Cc1ccc(CNC(=O)c2ccc3n(c2=O)CCN(CC2(S(=O)(=O)C4CCCC4)CC2)C3=O)cc1` [Example 22] are 1.9 nM, 56.3 nM and 88.8 nM.
Turning to `N#Cc1ccc(CNC(=O)c2ccc3n(c2=O)CCN(CC2(S(=O)(=O)CCCO)CC2)C3=O)cc1` [Example 24], the concentration for half-maximal inhibition (IC50) was determined as 4.7 nM in assay [1] and 168 nM in assay [3]. In addition, in assay [2], the EC50 was 832 nM.
The matching figures for `O=C(NCc1ccc(Cl)cc1)c1ccc2n(c1=O)CCN(CC1(S(=O)(=O)CCCO)CC1)C2=O` [Example 25]: 2.8 nM, 80.8 nM and 88.9 nM.
Regarding `CC(C)(C)S(=O)(=O)C1(CN2CCn3c(ccc(C(=O)NCc4ccc(C#N)c(F)c4)c3=O)C2=O)CC1` [Example 26], the figures for the IC50 in assay [1] and in assay [3] were 0.6 nM and 45.5 nM, respectively. For the same compound, the half-maximal effective concentration (EC50) in assay [2] was 8.9 nM.
Consider `CC(C)(C)S(=O)(=O)C1(CN2CCn3c(ccc(C(=O)NCc4ccc(C#N)cc4)c3=O)C2=O)CC1` [Example 27], for which the figures for the IC50 in assay [1] and in assay [3] were 0.3 nM and 25.2 nM, respectively. In assay [2], the EC50 is 6.8 nM.
Consider `N#Cc1ccc(CNC(=O)c2ccc3n(c2=O)CCN(CC2(S(=O)(=O)C4COC4)CC2)C3=O)cc1` [Example 28], for which the IC50 in assay [1] is 2.7 nM; in assay [3], 68.7 nM. Moreover, in assay [2], the 50% effective concentration (EC50) amounted to 116 nM.
